Assay [1] has as its target T1, ACSS2 (Homo sapiens, UniProt Q9NR19). The assay is described as follows: cell-based.
Protocol: (§1) ACSS2 Cellular Activity Assay (Cellular IC50)
(§2) The cellular activity of ACSS2 was based on tracing the incorporation of carbons from ^13C-Acetate into fatty-acids.
(§3) BT474/MDA-MB-468 cells growing in DMEM+25 mM D-glucose+1 mM sodium pyruvate+10% FBS+2 mM glutamine were plated in 12-well plates at 0.4×10^6 cells/well. The cells were then incubated at CO2 incubator for 24 hrs at hypoxic conditions (1% O2) before treated with compounds. At day 2, the medium was replaced to DMEM medium containing 15 mM Glucose, 1 mM Pyruvate, 0.65 mM Glutamine, 1% Dialyzed serum, 3.5 ug/ml Biotin, 0.2 mM ^13C-Acetate and various concentrations of the compounds. The cells were incubated for 5 hours at CO2 incubator in hypoxic conditions (1% O2). At the end of the 5 hours' incubation, the cells were washed twice with cold PBS, harvested in 1 ml PBS and transfer into V-shaped HPLC glass vials and centrifuge for 10 min at 600 g at 4 C. The supernatant was removed, and the cells' pellets were stored at −80° C. until taken for saponification.
(§4) The cells pellets were resuspended with 0.5 ml of the 90% Methanol, 10% H2O, 0.3M NaOH mixture and incubated at 80° C. for 60 min. Following the incubation, 50 μl formic acid and 0.4 ml hexane were added and the mixture was vortexed for 2 minutes. The vials were left few minutes for phases separation and then 200 μl of the top hexane phase extracted to a new glass vial. The hexane was dried under nitrogen and reconstituted in 100 μl of Methanol:Acetonitrile 5:3 mixture. The solution transferred to Eppendorf tubes, spun down at 17000 G for 20 min and transferred to LC-MS vials.
(§5) The analysis was performed with Thermo Q Exactive mass spectrometer with HESI probe and Dionex Ultimate 3000 UHPLC system. The separations were performed on Phenomenex Kintex 2.6u XB-C18 100A 150×2.10 mm column by injecting 5 ul of each sample. The chromatography started with a linear gradient from 85% to 100% of organic solvent (Methanol:Acetonitrile 1:1) versus 10 mM Ammonium Acetate buffer pH 4.7 for 3.5 minutes, followed by 4.5 minutes of isocratic 100% organic solvent and then 3 minutes of isocratic initial conditions, at a flow rate of 0.3 ul/min. The MS source conditions that were used: capillary temperature 325° C., sheath flow 25, aux flow 15, spray voltage 3.8 kV, aux temperature 300° C. The data collected from Negative ion mode at resolution of 70000 at Full-MS mode in 75-1000 m/z range.
(§6) The analysis of ^13C acetate incorporation into fatty acids (palmitate, myristate and stearate) performed on TraceFinder 3.2.512.0. The negative control areas and ^13C isotopic theoretical natural abundance were subtracted from the samples areas. Total ^13C incorporation for each fatty-acid (palmitate, myristate and stearate) was calculated and presented as percentage of the total amount.
Assay [2] addresses T1, ACSS2. The assay is described as follows: biochemical.
For assay [3], the target named is T1, ACSS2. Briefly: cell-based. This is another data set of the same source.
Protocol: Testing the inhibitory effect of compounds on the cellular activity of ACSS2 was done by tracing the incorporation of ^13C from ^13C-acetate into fatty-acids in MDA-MB-468 cells under hypoxic conditions of 1% 02. The assay was done for 5 hours in DMEM with 5.5 mM glucose, 1 mM sodium Pyruvate, 0.65 mM Glutamine, 3.5 ug/ml Biotin, 1% dialyzed serum, 0.5 mM 13C-acetate and with different concentrations of the inhibitors. At the end of the incubation, the cells were washed with cold PBS, harvested into glass tubes and undergo saponification. The level of ^13C incorporation into Palmitate was done by LC-MS analysis and the level of inhibition was calculated with PRISM software.
In assay [4] the target is T1, ACSS2. The assay is described as follows: cell-based. This is another data set of the same source.
Protocol: as §1, §2, §3, §4, §5, §6

Values joined by “and” are separate entries in the source; they are usually repeats but may differ in a detail not shown here. Equal entries are not always repeated.

T1 sequence (Q9NR19 whole entry): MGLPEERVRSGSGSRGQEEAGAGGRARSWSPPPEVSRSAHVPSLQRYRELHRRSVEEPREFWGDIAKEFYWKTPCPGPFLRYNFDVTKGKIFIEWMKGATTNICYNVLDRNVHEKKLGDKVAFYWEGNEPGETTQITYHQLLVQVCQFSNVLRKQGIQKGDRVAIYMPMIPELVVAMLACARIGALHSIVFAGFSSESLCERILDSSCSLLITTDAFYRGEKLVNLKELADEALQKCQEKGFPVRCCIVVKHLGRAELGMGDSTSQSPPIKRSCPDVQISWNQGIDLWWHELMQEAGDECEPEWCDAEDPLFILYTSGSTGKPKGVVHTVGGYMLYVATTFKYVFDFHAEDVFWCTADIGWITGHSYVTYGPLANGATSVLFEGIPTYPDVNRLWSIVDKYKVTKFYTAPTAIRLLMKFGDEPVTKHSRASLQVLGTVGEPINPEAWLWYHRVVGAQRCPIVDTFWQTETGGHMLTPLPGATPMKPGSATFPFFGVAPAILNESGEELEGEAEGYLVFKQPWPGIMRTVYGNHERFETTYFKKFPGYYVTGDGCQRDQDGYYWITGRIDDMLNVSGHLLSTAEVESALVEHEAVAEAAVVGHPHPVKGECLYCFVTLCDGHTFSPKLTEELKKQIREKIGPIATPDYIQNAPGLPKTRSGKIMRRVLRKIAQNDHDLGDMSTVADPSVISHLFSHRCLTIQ

The IC50 is the concentration that gives 50% inhibition. Regarding `CC1=NN(c2ccccc2)C(=O)C1C(=O)Nc1cccc(-c2cnccn2)c1` (stereo not shown) [compound 109, 3-methyl-5-oxo-1-phenyl-N-(3-(pyrazin-2-yl)phenyl)-4,5-dihydro-1H-pyrazole-4-carboxamide], the IC50 was in the range of 100 to 1000 nM on ACSS2 [1], 0.01 to 6 nM against ACSS2 [2] and 50 to 100 nM at ACSS2 [3].

With `CC1=NN(c2ccccc2)C(=O)C1C(=O)Nc1cccc(C(F)(F)F)c1` (stereo not shown) [compound 208, 3-methyl-5-oxo-1-phenyl-N-(3-(trifluoromethyl)phenyl)-4,5-dihydro-1H-pyrazole-4-carboxamide], the IC50 against ACSS2 [1] was ≥ 1000 nM and 100 to 1000 nM; against ACSS2 [2], 6 to 100 nM; against ACSS2 [3] it was above 100 nM.

With `CCC(=O)c1cccc(NC(=O)C2C(=O)N(c3ccccc3)N=C2C)c1` (stereo not shown) [compound 117, 3-methyl-5-oxo-1-phenyl-N-(3-propionylphenyl)-4,5-dihydro-1H-pyrazole-4-carboxamide], the IC50 against ACSS2 [1] is < 100 nM and 100 to 1000 nM; on ACSS2 [2], 0.01 to 6 nM; at ACSS2 [3], 0.5 to 50 nM.

With `CCc1cccc(NC(=O)C2C(=O)N(c3ccc(OC)cc3)N=C2C)c1` (stereo not shown) [compound 138, N-(3-ethylphenyl)-1-(4-methoxyphenyl)-3-methyl-5-oxo-4,5-dihydro-1H-pyrazole-4-carboxamide], the IC50 on ACSS2 [1] was in the range of 100 to 1000 nM; against ACSS2 [2], 6 to 100 nM; against ACSS2 [3], 0.5 to 50 nM.

Consider `COC(=O)c1cccc(NC(=O)C2C(=O)N(c3ccccc3)N=C2C)c1` (stereo not shown) [compound 206, 3-(3-methyl-5-oxo-1-phenyl-4,5-dihydro-1H-pyrazole-4-carboxamido)benzoate], for which the IC50 lay in the range of 100 to 1000 nM on ACSS2 [1], 0.01 to 6 nM against ACSS2 [2] and 50 to 100 nM against ACSS2 [3].

As to `CC1=NN(c2ccccc2)C(=O)C1C(=O)Nc1cccc(-c2ccco2)c1` (stereo not shown) [compound 108, N-(3-(furan-2-yl)phenyl)-3-methyl-5-oxo-1-phenyl-4,5-dihydro-1H-pyrazole-4-carboxamide], the IC50 was below 100 nM at ACSS2 [1], 0.01 to 6 nM on ACSS2 [2], 0.5 to 50 nM at ACSS2 [3] and below 100 nM at ACSS2 [4].

Take `CC1=NN(c2ccccc2)C(=O)C1C(=O)Nc1cccc(-c2ncco2)c1` (stereo not shown) [compound 124, 3-methyl-N-(3-(oxazol-2-yl)phenyl)-5-oxo-1-phenyl-4,5-dihydro-1H-pyrazole-4-carboxamide]: the IC50 on ACSS2 [1] was 100 to 1000 nM; on ACSS2 [2] it was 6 to 100 nM; against ACSS2 [3], above 100 nM; against ACSS2 [4] it was 100 to 1000 nM.

Take `CC1=NN(c2cccc(C(=O)O)c2)C(=O)C1C(=O)Nc1cccc(-c2cnccn2)c1` (stereo not shown) [compound 169]: the IC50 was 6 to 100 nM against ACSS2 [2], above 100 nM against ACSS2 [3] and at least 1000 nM against ACSS2 [4].

For the compound `CC1=NN(c2ccccc2)C(=O)C1C(=O)Nc1cccc(C2CC2)c1` (stereo not shown) [compound 119, N-(3-cyclopropylphenyl)-3-methyl-5-oxo-1-phenyl-4,5-dihydro-1H-pyrazole-4-carboxamide], the results for the IC50 against ACSS2 [1], on ACSS2 [2] and at ACSS2 [3] were 100 to 1000 nM, 0.01 to 6 nM and 0.5 to 50 nM, respectively.

For the compound `CC1=NN(c2ccccc2)C(=O)C1C(=O)Nc1cccc(C(C)(F)F)c1` (stereo not shown) [compound 141, N-(3-(1,1-difluoroethyl)phenyl)-3-methyl-5-oxo-1-phenyl-4,5-dihydro-1H-pyrazole-4-carboxamide], the IC50 on ACSS2 [1] was below 100 nM; against ACSS2 [2], 0.01 to 6 nM; against ACSS2 [3] it was 0.5 to 50 nM; on ACSS2 [4] it was below 100 nM.

As for `CC1=NN(c2cccc(C(=O)O)c2)C(=O)C1C(=O)Nc1cccc(-c2ccco2)c1` (stereo not shown) [compound 159, 3-(4-((3-(furan-2-yl)phenyl)carbamoyl)-3-methyl-5-oxo-4,5-dihydro-1H-pyrazol-1-yl)benzoic acid], the IC50 at ACSS2 [2] is 6 to 100 nM; at ACSS2 [3], above 100 nM; against ACSS2 [4], at least 1000 nM.

As for `CC1=NN(c2ccccc2)C(=O)C1C(=O)Nc1cccc(-c2ncc[nH]2)c1` (stereo not shown) [compound 107, N-(3-(1H-imidazol-2-yl)phenyl)-3-methyl-5-oxo-1-phenyl-4,5-dihydro-1H-pyrazole-4-carboxamide], the IC50 against ACSS2 [1] was ≥ 1000 nM and 100 to 1000 nM; against ACSS2 [2], 6 to 100 nM; on ACSS2 [3], 0.5 to 50 nM; against ACSS2 [4], 100 to 1000 nM.

For `CC1=NN(c2cccc(C(F)(F)F)c2)C(=O)C1C(=O)Nc1cccc(-c2cnccn2)c1` (stereo not shown) [compound 166, 3-methyl-5-oxo-N-(3-(pyrazin-2-yl)phenyl)-1-(3-(trifuoromethyl)phenyl)-4,5-dihydro-1H-pyrazole-4-carboxamide], the IC50 against ACSS2 [2] was 0.01 to 6 nM; at ACSS2 [3], above 100 nM; against ACSS2 [4], < 100 nM (2×) and 100 nM to 1 µM.

Turning to `CCc1cccc(NC(=O)C2C(=O)N(c3ccc(OC(C)C)cc3)N=C2C)c1` (stereo not shown) [compound 142, N-(3-ethylphenyl)-1-(4-isopropoxyphenyl)-3-methyl-5-oxo-4,5-dihydro-1H-pyrazole-4-carboxamide], the IC50 on ACSS2 [1] was 100 to 1000 nM; against ACSS2 [2], 6 to 100 nM; at ACSS2 [3] it was above 100 nM; at ACSS2 [4] it was 100 to 1000 nM.

Regarding `CCc1cccc(NC(=O)C2C(=O)N(c3ccc4c(c3)OCO4)N=C2C)c1` (stereo not shown) [compound 168], the half-inhibitory concentration (IC50) against ACSS2 [2] is 6 to 100 nM; at ACSS2 [3] it was 0.5 to 50 nM; on ACSS2 [4], 100 to 1000 nM.

As for `CC1=NN(c2cccc(C(F)(F)F)c2)C(=O)C1C(=O)Nc1cccc(-c2ccco2)c1` (stereo not shown) [compound 165], the IC50 against ACSS2 [2] was 0.01 to 6 nM; at ACSS2 [3] it was 0.5 to 50 nM; against ACSS2 [4], below 100 nM.

On to `CC(=O)c1cccc(NC(=O)C2C(=O)N(c3ccccc3)N=C2C)c1` (stereo not shown) [compound 183, N-(3-acetylphenyl)-3-methyl-5-oxo-1-phenyl-4,5-dihydro-1H yrazole-4-carboxamide], for which the IC50 at ACSS2 [1] was at least 1000 nM; on ACSS2 [2], 6 to 100 nM.

In the case of `CC1=NN(c2ccccc2)C(=O)C1C(=O)Nc1cccc(Br)c1` (stereo not shown) [compound 215, N-(3-bromophenyl)-3-methyl-5-oxo-1-phenyl-4,5-dihydro-1H-pyrazole-4-carboxamide], the IC50 is 100 to 1000 nM at ACSS2 [1] and 6 to 100 nM on ACSS2 [2].

Take `CC1=NN(c2ccccc2)C(=O)C1C(=O)Nc1cccc(C(=O)N(C)C)c1` (stereo not shown) [compound 220, N-(3-(dimethylcarbamoyl)phenyl)-3-methyl-5-oxo-1-phenyl-4,5-dihydro-1H-pyrazole-4-carboxamide]: the IC50 was 100 to 1000 nM on ACSS2 [1], 0.01 to 6 nM against ACSS2 [2], above 100 nM at ACSS2 [3] and below 100 nM at ACSS2 [4].

The record behind these values is patent publication US10851064B2, “ACSS2 inhibitors and methods of use thereof” (METABOMED LTD., priority 2017, dated 2020).
